Values quoted from earlier work, collected in patent US20110070315A1 (priority 2009, published 2011).

Test system: hair loss

Cl.NCCCC[C@H](N)C(=O)O [L—Lysine HCl, L-Lysine HCl]
decreases hair loss: one half
